Each compound was assayed against T1, recombinant human TRPV1 (Homo sapiens, UniProt Q8NER1) (assay: FLIPR based Ca2+ influx assay, capsaicin-induced, TRPV1.CHO cells). Conditions: CHO-K1 cells stably expressing recombinant human TRPV1; 30 nM capsaicin (~EC80); 15 mins pre-incubation.
T1 construct: expressed in transfected cells
Format: cell-based
Method: The functional activity of compounds at the TRPV1 receptor was determined using a Molecular Devices FLIPR based Ca^2+ influx assay, employing a Ca^2+ sensitive fluorescent dye and a CHO-K1 cell line, stably expressing recombinant human TRPV1, under the control of a CMV promoter (TRPV1.CHO cells). TRPV1.CHO cells were routinely maintained at 37° C./5% CO2 in normal growth medium (Dulbecco's Modified Eagles medium (DMEM/NUT.MDC.F-12 GLUTAMAX-1 (1:1) with PYRIDOXINE) supplemented with 10% fetalclone II serum and 0.4 mg/ml G418, (all Invitrogen).
Test compounds were prepared as 10 mM stock solution in DMSO and tested for activity over several log units (ranging […]-100 pM). Serial dilutions (half-log dose response) were prepared in 100% DMSO with further dilutions in aqueous assay buffer to final assay concentration for IC50 determination (1% DMSO final).
TRPV1.CHO cells were seeded (10,000 cells/well) in a 384 clear bottom plate (Costar) 24 hr prior to assay. […]
TRPV1 responses were assessed following addition, in the FLIPR, of 12.5 μl/well of test compound (to give appropriate final concentration) for 15 mins time followed by 12.5 μl/well of 120 nM capsaicin (agonist) in TRPV1 buffer to give a final concentration of capsaicin of 30 nM (˜EC80 concentration). Ca^2+ influx was assessed by measurement of fluorescence. Baseline fluorescence responses were measured for approximately 10 s prior to addition of capsaicin. Increases in fluorescence emission following capsaicin addition were measured for a further 110 s. Responses were recorded as Max-Min fluorescence. Antagonist induced inhibition of TRPV1 mediated increases in intracellular [Ca^2+] was assessed relative to wells on the same plate to which capsaicin was added in the absence of antagonist (i.e pre-incubation in buffer alone).

T1 sequence (Q8NER1 whole entry): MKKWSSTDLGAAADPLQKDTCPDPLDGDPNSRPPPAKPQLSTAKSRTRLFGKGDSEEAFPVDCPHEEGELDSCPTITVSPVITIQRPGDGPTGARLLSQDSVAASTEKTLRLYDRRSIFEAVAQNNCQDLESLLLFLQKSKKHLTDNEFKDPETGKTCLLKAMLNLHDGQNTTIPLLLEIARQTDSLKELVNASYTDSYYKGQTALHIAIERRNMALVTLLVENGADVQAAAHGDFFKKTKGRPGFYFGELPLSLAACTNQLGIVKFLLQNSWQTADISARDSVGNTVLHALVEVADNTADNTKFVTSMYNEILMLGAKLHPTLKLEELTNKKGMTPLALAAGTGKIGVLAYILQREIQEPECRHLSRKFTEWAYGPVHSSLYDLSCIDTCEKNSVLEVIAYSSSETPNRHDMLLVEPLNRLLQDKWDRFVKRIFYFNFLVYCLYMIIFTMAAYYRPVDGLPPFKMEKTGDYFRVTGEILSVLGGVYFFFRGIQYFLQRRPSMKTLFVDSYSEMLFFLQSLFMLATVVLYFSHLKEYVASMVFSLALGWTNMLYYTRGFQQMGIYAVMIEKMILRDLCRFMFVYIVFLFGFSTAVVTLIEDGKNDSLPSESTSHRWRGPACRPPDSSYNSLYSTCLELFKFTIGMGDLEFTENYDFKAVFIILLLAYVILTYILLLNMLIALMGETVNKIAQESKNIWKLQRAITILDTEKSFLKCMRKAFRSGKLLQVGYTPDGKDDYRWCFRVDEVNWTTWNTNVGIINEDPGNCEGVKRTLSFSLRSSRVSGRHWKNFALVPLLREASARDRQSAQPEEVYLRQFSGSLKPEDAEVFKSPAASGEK

Which IC50 does the source give for `C[Si](C)(C)c1ccc(NC(=O)c2ccc(-c3ncccc3C(F)(F)F)cc2)cc1` [A-04, 4-(3-(trifluoromethyl)pyridin-2-yl)-N-(4-(trimethylsilyl)phenyl)benzamide] here?
Its IC50 is 5.4 nM.

For `C[Si](C)(C)c1ccc(NC(=O)C2=CCN(c3ncccc3Cl)CC2)cc1` [A-05, 1-(3-chloropyridin-2-yl)-N-(4-(trimethylsilyl)phenyl)-1,2,3,6-tetrahydropyridine-4-carboxamide], which IC50 is on record?
The IC50 was 2.3 nM.

How did the IC50 turn out when `C[Si](C)(C)c1ccc(NC(=O)N2CCN(c3ncccc3Cl)CC2)cc1` [A-01, 4(3-chloropyridin-2-yl)-N-(4-(trimethylsilyl)phenyl)piperazine-1-carboxamide] was run?
Its IC50 is 0.5 nM.

Source: patent US8748610B2, “Compounds as TRPV1 antagonists, pharmaceutical compositions and medical uses thereof” (FL Therapeutics LLC, priority 2009, dated 2014)
